Reference: US20110034418A1, “PHARMACEUTICAL COMPOSITION WITH BISPHOSPHONATE” (priority 2008, published 2011)

Target: T1, Human farnesyl pyrophosphate synthase (FPPS, Swissprot ID: P14324) (Homo sapiens, UniProt P14324)
T1 construct: made in house
T1 sequence (P14324 67-419 limits assumed): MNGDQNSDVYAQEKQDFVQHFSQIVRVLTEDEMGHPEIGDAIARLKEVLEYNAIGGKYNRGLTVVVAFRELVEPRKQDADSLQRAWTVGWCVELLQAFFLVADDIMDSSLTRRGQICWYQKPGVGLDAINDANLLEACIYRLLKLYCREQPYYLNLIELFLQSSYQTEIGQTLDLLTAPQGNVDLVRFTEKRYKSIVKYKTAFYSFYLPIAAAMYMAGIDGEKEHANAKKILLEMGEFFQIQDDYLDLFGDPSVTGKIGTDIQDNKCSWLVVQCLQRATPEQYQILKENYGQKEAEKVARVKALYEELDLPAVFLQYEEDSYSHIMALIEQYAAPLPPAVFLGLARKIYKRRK
Test: label-free LC/MS/MS assay for farnesyl pyrophosphate synthase (FPPS), cell-free in vitro
Format: biochemical
Conditions: 5 min pre-incubation, GPP/IPP substrates, FPP quantified by LC/MS/MS
Description: For example, in a cell-free in vitro assay the superiority of compounds of the formula I over compounds already known can be shown. Briefly, the reaction proceeds in the presence of enzyme and an inhibitor of the formula I, and the reaction product (farneysyl pyrophosphate) is quantified by LC/MS/MS.
In detail, the inhibitor and enzyme are pre-incubated before adding the substrates
The assay is a label-free assay for farnesyl pyrophosphate synthase (FPPS) based on LC/MS/MS. This method quantifies in-vitro untagged farnesyl pyrophosphate (FPP) and is suitable for high throughput screening (HTS) to find inhibitors of FPPS and for the determinations of IC50 values of candidate compounds. The analysis time is 2.0 minutes with a total cycle time of 2.5 minutes. The analysis can be formatted for 384-well plates resulting in an analysis time of 16 hours per plate.
Pentanol, methanol, and isopropyl alcohol are HPLC grade and obtained from Fisher Scientific. DMIPA is from Sigma-Aldrich. Water is from an in-house Milli-Q system. […]
The Multiple Reaction Monitoring (MRM) transitions monitored are 381−>79− for FPP and 397−>159− for FSPP at a collision energy of 22 eV and a collision cell pressure of 2.1×10^−3 mbar of Ar. […]
The total cycle time per sample is 2.5 minutes. Since the analysis is formatted for 384-well plates, a plate is analyzed in 16 hours. […]

- IC50: 2.4 to 3.1 nM
Compound: CCc1cncn1CC(O)(P(=O)(O)O)P(=O)(O)O [Reference-Example 2, [2-(5-Ethyl-imidazol-1-yl)-1-hydroxy-1-phosphono-ethyl]-phosphonic acid]
